In ChEMBL document CHEMBL1201862, “PubChem BioAssay data set” (2004):
Activity calls are given as the source filed them.

Experiments:
Candida albicans [1] = experiment: growth inhibition of resistant C. albicans, dose response, CaCi-8 strain, fluconazole, dry powder, set 4 (AID 488950); format: functional, organism-based
Candida albicans [2] = experiment: fluconazole resistance reversal in C. albicans, dose response, CaCi-2 strain, Alamar Blue, dry powder, set 4 (AID 488943); format: functional, organism-based
NIH3T3 = experiment: mammalian cell toxicity in NIH-3T3 fibroblasts, dose response, cytotoxicity control for antifungal resistance reversal project, Alamar Blue, dry powder, set 2 (AID 488911); format: functional, cell-based; details: Mus musculus
Candida albicans [3] = experiment: growth inhibition of azole-resistant C. albicans, dose response, CaCi-8 strain, Alamar Blue, dry powder, set 2 (AID 488909); format: functional, organism-based
Candida albicans [4] = experiment: Candida albicans growth inhibition, agent alone, dose response, counter-screen for reversing antifungal drug resistance, CaCi-2 strain, no fluconazole, dry powder, set 4 (AID 488932); format: functional, organism-based
[5] = system: Streptococcus sp. 'group A'; experiment: growth inhibition of control SK(-) GAS strain, dose response, counter-screen for streptokinase expression inhibitor project, luminescence, kanamycin, BacTiterGlo, confirmation (AID 1900); format: functional, organism-based
Streptokinase A = target: T1, Streptokinase A (Streptococcus pyogenes serotype M1, UniProt P10520); experiment: S. pyogenes streptokinase expression inhibitors, potency, dose response, plasminogen activation absorbance, OD405 (AID 1914); format: functional, Streptococcus pyogenes M1 GAS;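 also: secreted streptokinase activity via plasminogen activation per viability signal from cell pellet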
T1 sequence (P10520 whole entry): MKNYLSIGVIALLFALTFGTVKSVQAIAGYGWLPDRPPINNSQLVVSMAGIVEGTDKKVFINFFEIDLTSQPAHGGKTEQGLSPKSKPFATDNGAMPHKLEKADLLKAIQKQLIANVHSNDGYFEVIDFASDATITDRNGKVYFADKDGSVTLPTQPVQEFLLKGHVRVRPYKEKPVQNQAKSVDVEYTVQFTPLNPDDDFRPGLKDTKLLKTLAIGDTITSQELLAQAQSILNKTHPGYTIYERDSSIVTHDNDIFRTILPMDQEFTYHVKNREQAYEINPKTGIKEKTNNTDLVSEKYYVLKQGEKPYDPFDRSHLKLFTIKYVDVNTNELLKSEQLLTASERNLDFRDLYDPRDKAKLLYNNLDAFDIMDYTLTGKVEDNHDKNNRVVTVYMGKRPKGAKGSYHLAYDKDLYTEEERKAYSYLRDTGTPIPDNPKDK

[6] = inhibitors of intracellular T. cruzi replication, confirmation, NIH3T3 host cells, beta-gal luminescence (AID 2044); format: functional, cell-based;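 also: intracellular parasites grown in NIH/3T3 mouse fibroblasts as host cells; luminescent beta-galactosidase reporter signal from transgenic T. cruzi replicating inside host cells; inhibitors lower the luminescence signal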
[7] = cytotoxicity toward NIH3T3 fibroblasts, dose response, counter-screen, cell-based, ATP luminescence, mouse fibroblasts (AID 2010); format: functional;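 also: cells exposed to compound for about 90 hours before reading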
Streptococcus = experiment: Group A Streptococcus viability loss, dose response, counter-screen for streptokinase expression inhibitor project, luminescence, BacTiterGlo (AID 1915); format: functional, organism-based;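 also: potency for reduction of bacterial viability or growth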
HEK293 = experiment: inhibitors of LMP1-driven NF-kB reporter, dose response, cell-based, HEK293, luciferase, cherry-pick (AID 588343); format: functional; details: Homo sapiens
[8] = target: Latent membrane protein 1 (Human herpesvirus 4 (strain B95-8), UniProt P03230); experiment: TES1-eGFP NF-kB reporter inhibition versus Tet-On dsRED, dose response, selectivity assay for LMP1 NF-kB inhibitor project, imaging, HEK293T, dual-color eGFP/dsRED, cherry-picks (AID 588398); format: functional, cell-based
INS1 = experiment: beta cell apoptosis inhibitors, cytokine rescue, dose response, luminescence, retest (AID 449756); format: functional, cell-based; details: Rattus norvegicus;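 also: cell death triggered by IL-1 beta plus TNF-alpha plus IFN-gamma mixture; protective hits raise ATP signal compared with cytokine alone wells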
[9] = target: DNA dC->dU-editing enzyme APOBEC-3A (Homo sapiens, UniProt P31941); experiment: APOBEC3A DNA deaminase inhibitors, dose response, biochemical (AID 504722); format: functional
[10] = target: DNA dC->dU-editing enzyme APOBEC-3G (Homo sapiens, UniProt Q9HC16); experiment: Dose Response confirmation of small molecule APOBEC3G DNA Deaminase Inhibitors via a fluorescence-based single-stranded DNA deaminase assay. [Related pubchem assays (depositor defined):AID493012, AID493028]; format: functional
Apelin receptor = Apelin receptor (Homo sapiens, UniProt P35414); experiment: APJ beta-arrestin recruitment antagonism, SAR follow-up, selectivity assay for CCR6 antagonist project, cell-based, luminescent, enzyme-fragment complementation (AID 588359); format: functional
[11] = target: C-X-C chemokine receptor type 5 (Homo sapiens, UniProt P32302); experiment: CXCR5 receptor antagonists, SAR follow-up, selectivity assay for CCR6 antagonist project, cell-based, beta-arrestin, luminescence, CHO-K1 PathHunter (AID 540340); format: functional
[12] = target: C-C chemokine receptor type 6 (Homo sapiens, UniProt P51684); experiment: CCR6 receptor antagonists, SAR follow-up, cell-based, luminescent beta-arrestin readout (AID 540334); format: functional
[13] = target: Mitogen-activated protein kinase 10 (Homo sapiens, UniProt P53779); experiment: Dose response biochemical screening assay for inhibitors of c-Jun N-Terminal Kinase 3 (JNK3). [Related pubchem assays: 746 ]
[14] = target: T2, Cyclin-dependent kinase 5/CDK5 activator 1 (Homo sapiens, UniProt Q00535); experiment: CDK5/p35 kinase inhibitors, dose response, biochemical, cherry-picked samples, set 2 (AID 504545)
[15] = target: Glycogen synthase kinase-3 alpha (Homo sapiens, UniProt P49840); experiment: Inhibition of Human GSK-3 alpha Activity Measured in Biochemical System Using Microfluidics - 2063-06_Inhibitor_Dose_DryPowder_Activity_Set2. [Related pubchem assays (depositor defined):AID2709]
[16] = target: Glycogen synthase kinase-3 beta (Homo sapiens, UniProt P49841); experiment: Inhibition of Human GSK-3 beta Activity Measured in Biochemical System Using Microfluidics - 2063-05_Inhibitor_Dose_DryPowder_Activity_Set2. [Related pubchem assays (depositor defined):AID2709]
[17] = target: T2, Cyclin-dependent kinase 5/CDK5 activator 1; experiment: CDK5-p25 kinase inhibitors, specificity check, dose response, selectivity assay for GSK-3 alpha inhibitor project, biochemical, microfluidic mobility shift, dry powder (AID 588430)
[18] = target: Photoreceptor-specific nuclear receptor (Homo sapiens, UniProt Q9Y5X4); format: functional, cell-based;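 also: CHO-S cells with Gal4-NCOR and VP16-NR2E3 two-hybrid luciferase reporter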
[19] = target: T3, Sentrin-specific protease 8 (Homo sapiens, UniProt Q96LD8); experiment: SENP8 protease inhibitors, SAR follow-up, biochemical, luminescence (AID 504501); format: functional
T3 sequence (Q96LD8 whole entry): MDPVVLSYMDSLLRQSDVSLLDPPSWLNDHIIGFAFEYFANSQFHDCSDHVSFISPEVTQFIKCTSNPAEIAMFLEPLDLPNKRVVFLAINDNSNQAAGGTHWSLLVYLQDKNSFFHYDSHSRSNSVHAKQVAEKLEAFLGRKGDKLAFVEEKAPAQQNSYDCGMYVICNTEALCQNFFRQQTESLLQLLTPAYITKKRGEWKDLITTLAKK

Caspase-3 = target: T4, Caspase-3 (Homo sapiens, UniProt P42574); experiment: SAR Analysis of small molecule inhibitors of Sentrin-specific proteases (SENPs) using a Caspase-3 Selectivity assay. [Related pubchem assays (depositor defined):AID2540, AID2599, AID434973, AID489001]; format: functional
T4 sequence (P42574 whole entry): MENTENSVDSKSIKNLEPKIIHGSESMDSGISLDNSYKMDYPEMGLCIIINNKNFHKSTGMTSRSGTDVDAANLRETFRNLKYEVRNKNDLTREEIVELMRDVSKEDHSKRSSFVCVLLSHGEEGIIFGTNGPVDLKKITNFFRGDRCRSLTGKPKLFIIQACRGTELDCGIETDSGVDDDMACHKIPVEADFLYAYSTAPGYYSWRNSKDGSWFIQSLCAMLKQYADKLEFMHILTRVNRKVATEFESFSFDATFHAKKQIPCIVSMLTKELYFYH

[20] = target: T5, Sentrin-specific protease 6 (Homo sapiens, UniProt Q9GZR1); experiment: SAR Analysis of small molecule inhibitors of Sentrin-specific protease 6 (SENP6) using a Luminescent assay. [Related pubchem assays (depositor defined):AID2582, AID2599]; format: functional
T5 sequence (Q9GZR1 whole entry): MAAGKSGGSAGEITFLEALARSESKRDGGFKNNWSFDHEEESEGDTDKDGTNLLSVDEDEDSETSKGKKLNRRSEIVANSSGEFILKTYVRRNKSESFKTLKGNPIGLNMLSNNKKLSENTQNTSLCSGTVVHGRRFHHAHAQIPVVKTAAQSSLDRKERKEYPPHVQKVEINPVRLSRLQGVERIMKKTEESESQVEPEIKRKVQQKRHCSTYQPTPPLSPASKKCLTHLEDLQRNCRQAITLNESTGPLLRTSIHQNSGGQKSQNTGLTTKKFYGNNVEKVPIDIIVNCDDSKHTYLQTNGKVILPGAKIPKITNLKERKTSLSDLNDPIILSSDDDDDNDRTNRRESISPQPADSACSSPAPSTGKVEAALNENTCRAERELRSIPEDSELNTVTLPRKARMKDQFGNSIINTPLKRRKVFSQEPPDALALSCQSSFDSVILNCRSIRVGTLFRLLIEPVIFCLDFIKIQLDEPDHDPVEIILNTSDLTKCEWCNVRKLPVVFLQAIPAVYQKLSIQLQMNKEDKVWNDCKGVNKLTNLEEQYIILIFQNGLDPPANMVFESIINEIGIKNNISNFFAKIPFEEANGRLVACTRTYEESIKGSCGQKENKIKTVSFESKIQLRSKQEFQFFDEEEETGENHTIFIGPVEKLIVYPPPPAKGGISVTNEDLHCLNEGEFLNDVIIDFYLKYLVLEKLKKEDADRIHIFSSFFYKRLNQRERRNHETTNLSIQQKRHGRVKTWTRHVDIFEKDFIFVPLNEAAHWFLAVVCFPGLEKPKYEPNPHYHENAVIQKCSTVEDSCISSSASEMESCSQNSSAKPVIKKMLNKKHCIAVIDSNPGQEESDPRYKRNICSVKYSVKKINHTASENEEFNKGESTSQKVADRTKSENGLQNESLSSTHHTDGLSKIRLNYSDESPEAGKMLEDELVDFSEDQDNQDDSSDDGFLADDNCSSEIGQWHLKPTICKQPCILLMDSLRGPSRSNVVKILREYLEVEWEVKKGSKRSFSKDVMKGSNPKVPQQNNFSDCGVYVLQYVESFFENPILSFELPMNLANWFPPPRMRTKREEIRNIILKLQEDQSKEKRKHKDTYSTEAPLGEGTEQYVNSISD

[21] = target: T6, Sentrin-specific protease 7 (Homo sapiens, UniProt Q9BQF6); experiment: SENP7 protease inhibitors, SAR follow-up, biochemical, luminescence (AID 504497); format: functional
T6 sequence (Q9BQF6 whole entry): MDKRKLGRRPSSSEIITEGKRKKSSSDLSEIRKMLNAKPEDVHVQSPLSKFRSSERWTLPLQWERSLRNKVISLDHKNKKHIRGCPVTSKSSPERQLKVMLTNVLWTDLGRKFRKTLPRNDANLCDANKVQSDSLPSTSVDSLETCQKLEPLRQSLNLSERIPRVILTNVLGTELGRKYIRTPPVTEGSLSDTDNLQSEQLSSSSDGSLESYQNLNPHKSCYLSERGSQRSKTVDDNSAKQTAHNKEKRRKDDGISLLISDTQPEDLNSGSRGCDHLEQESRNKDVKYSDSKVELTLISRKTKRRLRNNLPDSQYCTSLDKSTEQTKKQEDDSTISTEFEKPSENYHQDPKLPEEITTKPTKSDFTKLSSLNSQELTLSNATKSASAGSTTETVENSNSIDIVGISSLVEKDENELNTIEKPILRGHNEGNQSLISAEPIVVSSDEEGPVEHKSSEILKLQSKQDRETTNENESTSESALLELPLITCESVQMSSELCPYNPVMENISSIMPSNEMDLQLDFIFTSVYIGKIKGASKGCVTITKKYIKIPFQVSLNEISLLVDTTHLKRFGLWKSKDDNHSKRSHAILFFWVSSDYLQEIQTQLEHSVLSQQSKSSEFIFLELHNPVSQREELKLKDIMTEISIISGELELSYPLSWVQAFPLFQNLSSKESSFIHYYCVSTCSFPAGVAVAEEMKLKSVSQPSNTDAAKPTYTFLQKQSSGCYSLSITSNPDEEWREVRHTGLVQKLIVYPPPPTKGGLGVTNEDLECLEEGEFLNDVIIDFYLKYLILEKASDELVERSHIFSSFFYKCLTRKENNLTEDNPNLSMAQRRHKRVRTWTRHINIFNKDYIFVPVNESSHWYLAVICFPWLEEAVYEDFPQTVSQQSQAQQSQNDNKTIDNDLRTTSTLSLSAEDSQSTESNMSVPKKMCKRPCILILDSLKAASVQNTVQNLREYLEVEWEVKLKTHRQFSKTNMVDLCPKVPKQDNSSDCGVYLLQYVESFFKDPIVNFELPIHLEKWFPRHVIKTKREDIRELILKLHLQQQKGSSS

T2 sequence (Q00535 whole entry): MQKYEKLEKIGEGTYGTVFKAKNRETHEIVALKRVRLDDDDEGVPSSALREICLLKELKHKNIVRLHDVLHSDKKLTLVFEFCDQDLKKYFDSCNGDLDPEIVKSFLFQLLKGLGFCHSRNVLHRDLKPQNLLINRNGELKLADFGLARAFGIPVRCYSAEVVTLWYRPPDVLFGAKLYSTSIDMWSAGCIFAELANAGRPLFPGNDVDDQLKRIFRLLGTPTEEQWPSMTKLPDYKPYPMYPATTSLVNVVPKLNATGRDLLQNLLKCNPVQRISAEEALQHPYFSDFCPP
T2 sequence (Q15078 whole entry, further chain): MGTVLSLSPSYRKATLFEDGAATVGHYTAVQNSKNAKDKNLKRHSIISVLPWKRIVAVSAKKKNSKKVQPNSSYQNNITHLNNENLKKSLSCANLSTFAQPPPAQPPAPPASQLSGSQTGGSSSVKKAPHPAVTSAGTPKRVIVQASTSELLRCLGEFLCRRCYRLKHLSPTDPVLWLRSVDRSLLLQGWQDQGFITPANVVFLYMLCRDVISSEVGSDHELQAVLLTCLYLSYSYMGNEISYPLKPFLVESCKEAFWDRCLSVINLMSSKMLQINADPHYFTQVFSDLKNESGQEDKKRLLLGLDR
Latent membrane protein 1, sequence (P03230 whole entry): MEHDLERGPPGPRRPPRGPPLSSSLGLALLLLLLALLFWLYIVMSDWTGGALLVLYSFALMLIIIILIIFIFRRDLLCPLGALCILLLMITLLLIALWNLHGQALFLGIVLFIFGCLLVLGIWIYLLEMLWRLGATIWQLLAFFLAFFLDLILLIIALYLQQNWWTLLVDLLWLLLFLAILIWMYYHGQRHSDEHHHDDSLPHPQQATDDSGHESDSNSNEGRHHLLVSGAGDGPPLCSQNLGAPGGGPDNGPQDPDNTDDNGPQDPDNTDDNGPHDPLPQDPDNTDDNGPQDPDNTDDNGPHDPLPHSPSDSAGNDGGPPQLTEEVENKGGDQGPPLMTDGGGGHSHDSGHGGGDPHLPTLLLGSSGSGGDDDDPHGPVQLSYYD
DNA dC->dU-editing enzyme APOBEC-3G, sequence (Q9HC16 whole entry, the tested form may be a part): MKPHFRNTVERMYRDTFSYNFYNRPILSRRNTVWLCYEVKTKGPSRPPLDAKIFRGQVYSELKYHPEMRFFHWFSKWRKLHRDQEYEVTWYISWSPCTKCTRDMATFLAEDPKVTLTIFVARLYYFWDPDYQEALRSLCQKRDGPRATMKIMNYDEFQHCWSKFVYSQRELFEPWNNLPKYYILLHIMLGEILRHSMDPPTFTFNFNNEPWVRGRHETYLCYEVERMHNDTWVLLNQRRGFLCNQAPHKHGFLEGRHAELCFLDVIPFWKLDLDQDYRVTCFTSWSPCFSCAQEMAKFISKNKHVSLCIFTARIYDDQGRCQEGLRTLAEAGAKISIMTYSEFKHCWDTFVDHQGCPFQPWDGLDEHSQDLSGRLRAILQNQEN
C-C chemokine receptor type 6, sequence (P51684 whole entry): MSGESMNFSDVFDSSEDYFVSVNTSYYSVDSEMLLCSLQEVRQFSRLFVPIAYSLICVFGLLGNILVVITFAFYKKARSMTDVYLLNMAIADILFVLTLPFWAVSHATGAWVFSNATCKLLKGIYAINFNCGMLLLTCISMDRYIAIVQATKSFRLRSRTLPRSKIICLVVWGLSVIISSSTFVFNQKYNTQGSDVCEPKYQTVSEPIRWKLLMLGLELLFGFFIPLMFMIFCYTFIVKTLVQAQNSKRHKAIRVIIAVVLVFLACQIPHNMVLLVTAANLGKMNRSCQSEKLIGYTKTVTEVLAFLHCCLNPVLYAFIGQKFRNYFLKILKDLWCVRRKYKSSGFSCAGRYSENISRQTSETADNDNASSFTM
Mitogen-activated protein kinase 10, sequence (P53779 whole entry): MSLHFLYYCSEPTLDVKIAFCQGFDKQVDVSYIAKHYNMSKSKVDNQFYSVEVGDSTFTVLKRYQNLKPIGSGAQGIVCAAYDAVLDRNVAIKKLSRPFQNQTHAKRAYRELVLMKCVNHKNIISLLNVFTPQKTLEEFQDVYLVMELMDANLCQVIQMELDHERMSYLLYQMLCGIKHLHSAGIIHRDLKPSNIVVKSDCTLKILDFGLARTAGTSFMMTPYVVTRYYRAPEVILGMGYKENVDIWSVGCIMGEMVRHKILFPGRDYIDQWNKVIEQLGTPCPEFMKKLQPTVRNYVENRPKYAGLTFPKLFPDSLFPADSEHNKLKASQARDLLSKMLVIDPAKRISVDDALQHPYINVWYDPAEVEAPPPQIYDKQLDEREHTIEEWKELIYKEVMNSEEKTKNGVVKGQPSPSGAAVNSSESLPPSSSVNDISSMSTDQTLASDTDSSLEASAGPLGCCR
Photoreceptor-specific nuclear receptor, sequence (Q9Y5X4 whole entry, the tested form may be a part): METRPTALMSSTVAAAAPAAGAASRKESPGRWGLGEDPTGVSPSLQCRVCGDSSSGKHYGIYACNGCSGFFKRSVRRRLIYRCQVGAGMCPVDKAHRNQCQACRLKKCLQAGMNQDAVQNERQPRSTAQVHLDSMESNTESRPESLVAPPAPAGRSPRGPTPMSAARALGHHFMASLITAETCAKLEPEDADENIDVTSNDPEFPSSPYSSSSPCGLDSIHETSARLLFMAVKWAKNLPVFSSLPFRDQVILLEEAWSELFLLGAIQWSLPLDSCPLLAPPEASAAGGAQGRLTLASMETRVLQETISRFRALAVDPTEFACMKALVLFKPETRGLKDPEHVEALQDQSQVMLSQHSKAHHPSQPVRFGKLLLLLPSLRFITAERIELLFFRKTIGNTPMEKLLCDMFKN
Apelin receptor, sequence (P35414 whole entry, the tested form may be a part): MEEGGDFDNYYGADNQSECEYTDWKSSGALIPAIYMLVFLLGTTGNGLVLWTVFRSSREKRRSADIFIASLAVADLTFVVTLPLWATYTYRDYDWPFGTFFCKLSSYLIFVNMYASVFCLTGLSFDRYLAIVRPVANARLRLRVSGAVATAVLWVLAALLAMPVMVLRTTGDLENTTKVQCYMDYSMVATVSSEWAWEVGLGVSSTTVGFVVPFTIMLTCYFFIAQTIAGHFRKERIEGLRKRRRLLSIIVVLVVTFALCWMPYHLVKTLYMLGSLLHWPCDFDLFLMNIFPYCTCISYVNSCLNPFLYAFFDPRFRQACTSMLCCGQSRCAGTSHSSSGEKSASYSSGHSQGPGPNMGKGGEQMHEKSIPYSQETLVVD
Glycogen synthase kinase-3 alpha, sequence (P49840 whole entry): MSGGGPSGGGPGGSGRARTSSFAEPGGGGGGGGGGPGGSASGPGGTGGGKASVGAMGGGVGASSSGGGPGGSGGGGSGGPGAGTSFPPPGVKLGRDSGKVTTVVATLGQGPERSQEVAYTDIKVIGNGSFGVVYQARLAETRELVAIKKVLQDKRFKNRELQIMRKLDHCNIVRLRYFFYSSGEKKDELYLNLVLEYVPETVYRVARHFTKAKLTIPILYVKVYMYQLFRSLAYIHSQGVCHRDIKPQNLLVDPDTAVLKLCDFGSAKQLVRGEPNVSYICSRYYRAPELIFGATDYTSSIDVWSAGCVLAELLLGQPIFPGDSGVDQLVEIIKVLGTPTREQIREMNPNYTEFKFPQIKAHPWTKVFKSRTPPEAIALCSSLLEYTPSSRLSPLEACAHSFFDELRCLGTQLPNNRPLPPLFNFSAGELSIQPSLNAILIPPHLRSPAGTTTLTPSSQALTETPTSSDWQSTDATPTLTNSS
DNA dC->dU-editing enzyme APOBEC-3A, sequence (P31941 whole entry): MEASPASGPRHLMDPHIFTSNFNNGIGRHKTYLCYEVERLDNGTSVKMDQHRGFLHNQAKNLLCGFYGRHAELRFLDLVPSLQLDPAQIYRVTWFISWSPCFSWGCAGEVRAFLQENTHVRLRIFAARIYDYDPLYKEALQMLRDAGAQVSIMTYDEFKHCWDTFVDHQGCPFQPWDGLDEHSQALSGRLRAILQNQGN
C-X-C chemokine receptor type 5, sequence (P32302 whole entry): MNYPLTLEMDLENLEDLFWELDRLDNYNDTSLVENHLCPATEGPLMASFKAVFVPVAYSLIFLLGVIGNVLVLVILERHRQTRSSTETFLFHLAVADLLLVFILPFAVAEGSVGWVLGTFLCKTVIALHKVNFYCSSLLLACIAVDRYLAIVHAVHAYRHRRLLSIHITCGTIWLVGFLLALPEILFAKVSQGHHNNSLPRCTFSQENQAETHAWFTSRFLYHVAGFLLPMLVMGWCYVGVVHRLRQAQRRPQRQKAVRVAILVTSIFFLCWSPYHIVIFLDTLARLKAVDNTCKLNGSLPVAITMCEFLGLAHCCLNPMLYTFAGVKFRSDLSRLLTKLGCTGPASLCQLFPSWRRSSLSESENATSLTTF
Glycogen synthase kinase-3 beta, sequence (P49841 whole entry): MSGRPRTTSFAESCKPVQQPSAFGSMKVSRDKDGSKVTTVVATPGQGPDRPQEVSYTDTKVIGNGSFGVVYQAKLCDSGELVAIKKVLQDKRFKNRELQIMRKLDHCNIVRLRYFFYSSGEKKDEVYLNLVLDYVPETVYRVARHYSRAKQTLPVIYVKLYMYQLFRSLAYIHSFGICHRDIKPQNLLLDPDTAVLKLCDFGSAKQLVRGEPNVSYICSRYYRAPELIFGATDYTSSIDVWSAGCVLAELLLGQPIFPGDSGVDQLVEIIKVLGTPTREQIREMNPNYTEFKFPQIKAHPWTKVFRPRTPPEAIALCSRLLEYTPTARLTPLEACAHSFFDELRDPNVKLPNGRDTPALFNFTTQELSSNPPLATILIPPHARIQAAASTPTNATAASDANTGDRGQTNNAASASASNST

SMILES: O=C(c1ccc(Cl)cc1)N1CCN(c2cccnc2)CC1
- AC50 (Candida albicans [1]): 20.4 µM (active)
- AC50 (Candida albicans [2]): 25 µM (active)
- AC50 (NIH3T3): 190 µM (active)
- AC50 (Candida albicans [3]): 30.5 µM (active)
- AC50 (Candida albicans [4]): 43.5 µM (active)

SMILES: CCCc1sc(N/N=C/c2ccccn2)nc1-c1ccc(Br)cc1
- EC50 [5]: 0.442 µM (active)
- EC50 (Streptokinase A): > 150 µM (not active)
- EC50 [6]: 0.202 µM (active)
- EC50 [7]: 2.38 µM (active)
- EC50 (Streptococcus): 8.45 µM (active)
- AC50 (HEK293): 22.3 µM (active)
- AC50 [8]: 32.3 µM (active)
- AC50 (INS1): 8.41 µM (active)

SMILES: O=C1C2C3C=CC(CO)(O3)C2C(=O)N1c1ccccc1-c1ccccc1 (stereo not drawn)
- IC50 [9]: > 100 µM (inactive)
- IC50 [10]: 11.4 µM (active)
- IC50 (Apelin receptor): > 66.6 µM (inactive)
- IC50 [11]: 52.7 µM (inactive)
- IC50 [12]: > 66.6 µM (inactive)

SMILES: COc1cccc(C(=O)c2sc(NC(C)C)nc2N)c1
- IC50 [13]: > 31 µM (not active)
- AC50 [14]: 7.12 µM (active)
- AC50 [15]: 0.288 µM (active)
- AC50 [16]: 0.252 µM (active)
- AC50 [17]: 1.11 µM (active)
- IC50 [18]: 0.0182 µM (active)

SMILES: N#Cc1cccc(-c2nc(/C=C/c3ccc(F)cc3)no2)c1
- IC50 [19]: > 99 µM (inactive)
- IC50 (Caspase-3): > 99 µM (inactive)
- IC50 [20]: > 99 µM (inactive)
- IC50 [21]: > 99 µM (inactive)
